Holding throughout (format): binding
The target in assay [1] is T1, OsMDHAR (Oryza sativa, UniProt Q652L6).
T1 construct: gene MDAR3; amplified from rice cDNA; monomer by size exclusion
As to the kind of experiment: X-ray crystal structure, […] Å. The conditions noted are these: co-purified FAD, one per monomer; NAD-free crystal.

The target in assay [2] is T2, OsMDHAR (Oryza sativa, UniProt Q652L6, E196A).
T2 construct: gene MDAR3; amplified from rice cDNA; monomer by size exclusion
In words: isothermal titration calorimetry. The settings on record: text names both NADH and NAD for the titrated ligand.

For assay [3], the target named is T1, OsMDHAR. As to the kind of experiment: isothermal titration calorimetry. The conditions noted are these: text names both NADH and NAD for the titrated ligand.
Assay [4] has as its target T2, OsMDHAR. In words: X-ray crystal structure, […] Å. The settings on record: crystal soaked with 50 mM NADPH until colourless; FAD bound.
The target in assay [5] is T3, OsMDHAR (Oryza sativa, UniProt Q652L6, Y349F).
T3 construct: gene MDAR3; amplified from rice cDNA; monomer by size exclusion
T3 sequence (Q652L6 whole entry Y349F): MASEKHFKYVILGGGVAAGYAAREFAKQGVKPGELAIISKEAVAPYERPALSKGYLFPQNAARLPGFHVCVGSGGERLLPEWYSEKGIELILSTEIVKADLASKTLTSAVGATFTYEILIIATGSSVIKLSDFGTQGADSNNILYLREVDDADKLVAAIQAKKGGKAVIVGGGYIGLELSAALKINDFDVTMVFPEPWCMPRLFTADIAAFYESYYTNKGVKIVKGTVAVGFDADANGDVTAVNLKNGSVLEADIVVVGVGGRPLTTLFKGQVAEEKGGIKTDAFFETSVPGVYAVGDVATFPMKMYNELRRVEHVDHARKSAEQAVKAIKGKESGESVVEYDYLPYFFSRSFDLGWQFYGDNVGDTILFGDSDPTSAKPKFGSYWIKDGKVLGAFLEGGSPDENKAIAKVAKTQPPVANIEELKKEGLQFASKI
As to the kind of experiment: X-ray crystal structure, […] Å. The conditions noted are these: crystal soaked with 10 mM NADH, then ISD; quaternary complex with FAD and ISD.

Here are results for four molecules from publication PMC5031999, “Structure and catalytic mechanism of monodehydroascorbate reductase, MDHAR, from Oryza sativa L. japonica” (Scientific Reports, 2016).

Each structure is given as a SMILES string.

T1 sequence (Q652L6 whole entry): as the sequence (Q652L6 whole entry Y349F) above, with F349Y counted along it
T2 sequence (Q652L6 whole entry E196A): as the sequence (Q652L6 whole entry Y349F) above, with E196A, F349Y counted along it

With `Cc1cc2nc3c(=O)[nH]c(=O)nc-3n(C[C@H](O)[C@H](O)[C@H](O)COP(=O)(O)OP(=O)(O)OC[C@H]3O[C@@H](n4cnc5c(N)ncnc54)[C@H](O)[C@@H]3O)c2cc1C` [FAD], the “X-ray crystal structure, 1.7 Å” value on OsMDHAR [1] is “All four structures contain one molecule of FAD per monomer”.
Consider `NC(=O)C1=CN([C@@H]2O[C@H](COP(=O)(O)OP(=O)(O)OC[C@H]3O[C@@H](n4cnc5c(N)ncnc54)[C@H](O)[C@@H]3O)[C@@H](O)[C@H]2O)C=CC1` [NADH], for which the binding affinity entry is “there is no difference between WT and E196A in NAD binding affinity” at OsMDHAR [2]; “we measured the binding affinity of wild type (WT) and E196A for NADH and NADPH” on OsMDHAR [3].
As for `NC(=O)c1ccc[n+]([C@@H]2O[C@H](COP(=O)(O)OP(=O)(O)OC[C@H]3O[C@@H](n4cnc5c(N)ncnc54)[C@H](OP(=O)(O)O)[C@@H]3O)[C@@H](O)[C@H]2O)c1` [NADP], the “X-ray crystal structure, 1.8 Å” value on OsMDHAR [4] is listed as “the structure of the E196A mutant-NADP complex revealed”.
On to `NC(=O)c1ccc[n+]([C@@H]2O[C@H](COP(=O)(O)OP(=O)(O)OC[C@H]3O[C@@H](n4cnc5c(N)ncnc54)[C@H](O)[C@@H]3O)[C@@H](O)[C@H]2O)c1` [NAD], for which the “X-ray crystal structure, 1.9 Å” value at OsMDHAR [5] was “We also determined quaternary complex structures with FAD, NAD, and AsA or ISD”.
